Results on 19 molecules are retold here after patent US10183944B2 (Asana Biosciences, LLC, priority 2011, dated 2019).

A value given as a limit tells only on which side of the number the result lay.

In experiment [1] the target is Syk (356-635 amino acids) catalytic domain (Homo sapiens (Human), UniProt P43405). Briefly: Inhibition of enzymatic Syk kinase activity (radiometric). The experiment is classed as biochemical. The note with it: read-out: IC50 Syk. The method, boiled down: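 Radiometric filter-binding format: 32P transfer from γ-32P-ATP onto pG4T, scintillation-counted after acid washes of P81 paper. Syk kinase domain (356-635), 0.035–7.5 ng per reaction, was exposed to compound for 30 minutes at room temperature before a 10-minute, 30° C. reaction with ATP (100 μM stock). Inhibition derived from counts with versus without compound.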

In the next experiment the target is JAK2 (Homo sapiens (Human), UniProt O60674). Briefly: Inhibition of enzymatic JAK2 kinase activity (TR-FRET). The experiment is classed as biochemical. The note with it: read-out: IC50 JAK. The method in brief:
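TR-FRET read-out (Eu antibody donor, Ulight poly Glu-Tyr acceptor, 665/615 nm ratio) after a 60 min RT kinase reaction with ATP, begun following 30 min compound–enzyme preincubation. Stopped by EDTA; inhibition expressed as 100 minus % activity of positive control.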
In general terms: In TR-FRET formats the signal depends on donor and acceptor labels being close together.

Sequence of JAK2 (O60674 808-1132): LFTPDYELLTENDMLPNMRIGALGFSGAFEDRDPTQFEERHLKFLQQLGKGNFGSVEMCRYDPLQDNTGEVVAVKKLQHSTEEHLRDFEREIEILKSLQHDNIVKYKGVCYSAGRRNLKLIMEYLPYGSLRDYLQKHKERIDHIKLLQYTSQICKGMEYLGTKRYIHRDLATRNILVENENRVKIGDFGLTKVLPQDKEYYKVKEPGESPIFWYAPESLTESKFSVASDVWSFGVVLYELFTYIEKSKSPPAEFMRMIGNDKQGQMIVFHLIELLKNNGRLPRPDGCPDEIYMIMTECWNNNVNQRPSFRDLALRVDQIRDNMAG

As for `N#CCC(=O)N1CCN(c2ccc(Nc3nc(N4CCCCCC4)nc4cn[nH]c(=O)c34)cn2)CC1` [Example 234, 3-(4-(5-((2-(azepan-1-yl)-5-oxo-5,6-dihydropyrimido[4,5-d]pyridazin-4-yl)amino)pyridin-2-yl)piperazin-1-yl)-3-oxopropanenitrile], the IC50 in experiment [1] is below 50 nM; on JAK2, below 10 nM.

As for `O=C(O)Cn1nnc(-c2ccc(Nc3nc(N4CCCCCC4)nc4cn[nH]c(=O)c34)cc2)n1` [Example 235, 2-(5-(4-((2-(azepan-1-yl)-5-oxo-5,6-dihydropyrimido[4,5-d]pyridazin-4-yl)amino)phenyl)-2H-tetrazol-2-yl)acetic acid], the IC50 (in experiment [1]; on JAK2) was below 50 nM in each case.

In the case of `O=c1[nH]ncc2nc(N3CCCCCC3)nc(Nc3ccc(N4CCC(CCO)CC4)nc3)c12` [Example 236, 2-(azepan-1-yl)-4-((6-(4-(2-hydroxyethyl)piperidin-1-yl)pyridin-3-yl)amino) pyrimido[4,5-d]pyridazin-5(6H)-one], the figures for the IC50 (in experiment [1]; on JAK2) were below 100 nM and below 50 nM, respectively.

For `N#CCC(=O)N1CCN(c2ccc(Nc3nc(N4CCC(CC#N)CC4)nc4cn[nH]c(=O)c34)cn2)CC1` [Example 237, 3-(4-(5-((2-(4-(cyanomethyl)piperidin-1-yl)-5-oxo-5,6-dihydropyrimido[4,5-d]pyridazin-4-yl)amino)pyridin-2-yl)piperazin-1-yl)-3-oxopropanenitrile], the IC50 in experiment [1] was below 50 nM; on JAK2, below 10 nM.

In the case of `CC(C)(O)C(=O)N1CCN(c2ccc(Nc3nc(N4CCCCCC4)nc4cn[nH]c(=O)c34)cn2)CC1` [Example 238, 2-(azepan-1-yl)-4-((6-(4-(2-hydroxy-2-methylpropanoyl)piperazin-1-yl)pyridin-3-yl)amino)pyrimido[4,5-d]pyridazin-5(6H)-one], the IC50 was below 50 nM in experiment [1] and below 10 nM on JAK2.

With `O=c1[nH]ncc2nc(N3CCCCCC3)nc(Nc3ccc(OCCN4CCN(CCO)CC4)cc3)c12` [Example 239, 2-(azepan-1-yl)-4-((4-(2-(4-(2-hydroxyethyl)piperazin-1-yl)ethoxy)phenyl)amino)pyrimido[4,5-d]pyridazin-5(6H)-one], the values for the IC50 (in experiment [1]; at JAK2) were below 100 nM and below 50 nM, respectively.

Regarding `N#CCC(=O)N1CCN(c2ccc(Nc3nc(N4CCC(CC#N)CC4)nc4cn[nH]c(=O)c34)cc2)CC1` [Example 240, 3-(4-(4-((2-(4-(cyanomethyl)piperidin-1-yl)-5-oxo-5,6-dihydropyrimido[4,5-d]pyridazin-4-yl)amino)phenyl)piperazin-1-yl)-3-oxopropanenitrile], the IC50 in experiment [1] is below 50 nM; at JAK2, below 10 nM.

Regarding `CN1CCN(c2ccc(Nc3nc(N4CCCCCC4)nc4cn[nH]c(=O)c34)cn2)CC1` [Example 242, 2-(azepan-1-yl)-4-((6-(4-methylpiperazin-1-yl)pyridin-3-yl)amino)pyrimido[4,5-d]pyridazin-5(6H)-one], the concentration for half-maximal inhibition (IC50) (in experiment [1]; on JAK2) was below 50 nM in each case.

Take `CN1CCN(c2ccc(Nc3nc(N4CCC(CC#N)CC4)nc4cn[nH]c(=O)c34)cn2)CC1` [Example 243, 2-(1-(4-((6-(4-methylpiperazin-1-yl)pyridin-3-yl)amino)-5-oxo-5,6-dihydropyrimido[4,5-d]pyridazin-2-yl)piperidin-4-yl)acetonitrile]: the IC50 (in experiment [1]; at JAK2) was below 50 nM throughout.

As for `N#CCC1CCN(c2nc(Nc3ccc(-c4nn[nH]n4)cc3)c3c(=O)[nH]ncc3n2)CC1` [Example 245, 2-(1-(4-((4-(2H-tetrazol-5-yl)phenyl)amino)-5-oxo-5,6-dihydropyrimido[4,5-d]pyridazin-2-yl)piperidin-4-yl)acetonitrile], the IC50 (in experiment [1]; at JAK2) was below 50 nM in each case.

Take `N#CCC1CCN(c2nc(Nc3ccc(N4CCC(Cc5nn[nH]n5)CC4)cc3)c3c(=O)[nH]ncc3n2)CC1` [Example 246, 2-(1-(4-((4-(4-((2H-tetrazol-5-yl)methyl)piperidin-1-yl)phenyl)amino)-5-oxo-5,6-dihydropyrimido[4,5-d]pyridazin-2-yl)piperidin-4-yl)acetonitrile]: the half-inhibitory concentration (IC50) (in experiment [1]; at JAK2) was below 10 nM throughout.

On to `CN1CCN(c2ccc(Nc3nc(N4CCCCCC4)nc4cn[nH]c(=O)c34)cc2)CC1` [Example 247, 2-(azepan-1-yl)-4-((4-(4-methylpiperazin-1-yl)phenyl)amino)pyrimido[4,5-d]pyridazin-5(6H)-one], for which the IC50 (in experiment [1]; at JAK2) was below 10 nM in each case.

For `N#CCC1CCN(c2nc(Nc3ccc(N4CCCC(CC(=O)O)C4)cc3)c3c(=O)[nH]ncc3n2)CC1` (centres unmarked) [Example 250, 2-(1-(4-((2-(4-(cyanomethyl)piperidin-1-yl)-5-oxo-5,6-dihydropyrimido[4,5-d]pyridazin-4-yl)amino)phenyl)piperidin-3-yl)acetic acid], the IC50 was below 50 nM in experiment [1] and below 10 nM on JAK2.

As to `O=c1[nH]ncc2nc(N3CCCCCC3)nc(Nc3ccc(N4CCC(Cc5nn[nH]n5)CC4)nc3)c12` [Example 252, 4-((6-(4-((2H-tetrazol-5-yl)methyl)piperidin-1-yl)pyridin-3-yl)amino)-2-(azepan-1-yl)pyrimido[4,5-d]pyridazin-5(6H)-one], the IC50 in experiment [1] was below 50 nM; on JAK2, below 10 nM.

As to `N#CCC1CCN(c2nc(Nc3ccc(N4CCC(Cc5nn[nH]n5)CC4)nc3)c3c(=O)[nH]ncc3n2)CC1` [Example 253, 2-(1-(4-((6-(4-((2H-tetrazol-5-yl)methyl)piperidin-1-yl)pyridin-3-yl)amino)-5-oxo-5,6-dihydropyrimido[4,5-d]pyridazin-2-yl)piperidin-4-yl) acetonitrile], the IC50 is below 50 nM in experiment [1] and below 10 nM at JAK2.

Turning to `COCCN1CCN(c2ccc(Nc3nc(N4CCCCCC4)nc4cn[nH]c(=O)c34)cc2)CC1` [Example 255, 2-(azepan-1-yl)-4-((4-(4-(2-methoxyethyl)piperazin-1-yl)phenyl)amino) pyrimido[4,5-d]pyridazin-5(6H)-one], the IC50 was below 50 nM in experiment [1] and below 10 nM at JAK2.

As for `O=c1[nH]ncc2nc(N3CCCCCC3)nc(Nc3ccc(N4CCN(CCCO)CC4)cc3)c12` [Example 260, 2-(azepan-1-yl)-4-((4-(4-(3-hydroxypropyl)piperazin-1-yl)phenyl)amino)pyrimido[4,5-d]pyridazin-5(6H)-one], the IC50 (in experiment [1]; at JAK2) was below 50 nM in each case.

In the case of `N#CCC1CCN(c2nc(Nc3ccc(OC4CCN(CC(=O)O)CC4)cc3)c3c(=O)[nH]ncc3n2)CC1` [Example 262, 2-(4-(4-((2-(4-(cyanomethyl)piperidin-1-yl)-5-oxo-5,6-dihydropyrimido[4,5-d]pyridazin-4-yl)amino)phenoxy)piperidin-1-yl)acetic acid], the IC50 in experiment [1] was below 50 nM; at JAK2, below 10 nM.

With `O=c1[nH]ncc2nc(N3CCCCCC3)nc(Nc3ccc(N4CCCN(CCO)CC4)cc3)c12` [Example 263, 2-(azepan-1-yl)-4-((4-(4-(2-hydroxyethyl)-1,4-diazepan-1-yl)phenyl)amino) pyrimido[4,5-d]pyridazin-5(6H)-one], the half-maximal inhibitory concentration (IC50) (in experiment [1]; on JAK2) was below 10 nM in each case.

As usually defined, the IC50 is the concentration that gives 50% inhibition.
